According to patent publication US20250353873A1, “COMPOUNDS AND METHODS FOR MODULATING APOE EXPRESSION” (Ionis Pharmaceuticals, Inc., priority 2024, published 2025):
Where “and” joins values, the source holds several entries; their conditions need not be identical. Equal entries are not always repeated. Strand notation (5' to 3'): a small letter for the sugar, then the base; units joined by * are phosphorothioate-linked, units joined directly phosphodiester-linked; [ ] holds rarer units or linkages, { } end groups; capitals alone tell only the bases. [ms] = mesyl phosphoramidate linkage; e = 2'-O-(2-methoxyethyl) (MOE); k = constrained ethyl (cEt); [5mC] = 5-methylcytosine; d = 2'-deoxy (DNA)

Legend:
human APOE RNA [1] = test: Dose-dependent inhibition of human APOE RNA in differentiated SH-SY5Y cells, free uptake, 5 days (Example 5); format: cell-based
Method in brief: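 APOE RNA, measured by RTS3073 primer probe set and normalized to human PPIA, is reported as % of untreated control cells, with IC50 fitted. Cells were differentiated SH-SY5Y at 10,000/well, given modified oligonucleotide at several concentrations by free uptake for 5 days.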

human APOE RNA [2] = test: Activity in APOE C57BL/6NTac-Apoeem7250 knock-in mice, single ICV bolus, 8 weeks (Example 11); format: in vivo; settings: for APOE RNA (% control) Cortex / APOE RNA (% control) Spinal Cord: single ICV bolus 300 μg, 8 weeks post treatment, normalized to mouse Ppia
Method in brief: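 Cortical and spinal cord human APOE RNA quantified by RT-qPCR 8 weeks after a single 300 μg ICV dose in knock-in mice, Ppia-normalized. Values are percent of levels in PBS-treated animals.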

human APOE RNA [3] = test: Potency (dose response, ED50) in APOE C57BL/6NTac-Apoeem7250 knock-in mice, 4 weeks (Example 14); format: in vivo; settings: for ED 50 (μg) Cortex / ED 50 (μg) Spinal Cord: single ICV bolus, GraphPad Prism 10
Procedure: Modified oligonucleotides described above were tested in the APOE C57BL/6NTac-Apoeem7250 knock-in mouse model described above.
APOE C57BL/6NTac-Apoeem7250 knock-in mice were divided into groups of 3-4 mice each. A group of 3-4 mice received a single ICV bolus with PBS as a negative control.
Four weeks post treatment, mice were sacrificed, and RNA was extracted from cortical brain tissue and spinal cord for quantitative real-time RT-PCR analysis of RNA expression of […] using human primer probe set RTS3073 (described herein above). APOE RNA levels were normalized to mouse Ppia. Mouse Ppia was amplified using primer probe set m_cyclo24 (described herein above). Results are presented as percent human APOE RNA relative to the amount of APOE RNA in PBS treated animals, (% control). N.C. indicates values that were not calculated. Each experiment is identified in separate tables below.
The half maximal effective dose (ED50) of each modified oligonucleotide was calculated using GraphPad Prism 10 software (GraphPad Software, San Diego, CA).

human APOE RNA [4] = test: Dose-dependent reduction of human APOE RNA in HepG2 cells, electroporation, 20,000 cells per well, average of GAPDH- and PPIA-normalized results (Example 4, Table 12); format: cell-based; settings: HepG2, 20,000 cells per well; for IC50: approximately 24 hours
Procedure: HepG2 cells plated at a density of 20,000 cells per well were treated by electroporation with various concentrations of modified oligonucleotide as specified in the tables below. […] APOE RNA levels were measured using the human primer probe set RTS3073 (described herein above). APOE RNA levels were normalized to human GAPDH, and human PPIA. Human GAPDH was amplified using human primer probe set RTS104 (described herein above). Human PPIA was amplified using human primer probe set mk_cycloA_2nd (described herein above) The average of the GAPDH-normalized results and the PPIA-normalized results are presented in the table below as percent APOE RNA, relative to the amount of APOE RNA in untreated control cells (% UTC). The half maximal inhibitory concentration (IC50) of each modified oligonucleotide was calculated in GraphPad Prism 10 (GraphPad Software, San Diego, CA) and is also presented in the table below.

human APOE RNA [5] = test: Activity in APOE C57BL/6NTac-Apoeem7250 knock-in mice, single ICV bolus, 4 weeks (Example 10); format: in vivo; settings: single ICV bolus 300 μg, 4 weeks post treatment, normalized to mouse Ppia
Method in brief: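 Human APOE RNA, quantified by real-time RT-PCR with RTS3073 and normalized to mouse Ppia, was read in cortical brain and spinal cord 4 weeks post dosing. Dosing was a single ICV bolus of 300 μg per knock-in mouse; values are % of PBS-treated animals.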

## Aes^mCeoTeoTesGesGksTdsGdzAdzAdzTds^mCdsTdsTdsTdsAdzTksTksAesAe (eA*e[5mC]eTeT*eG*kG*dT*dG[ms]dA[ms]dA[ms]dT*d[5mC]*dT*dT*dT*dA[ms]kT*kT*eA*eA) [Compound No. 1757576]
Human APOE RNA [1]; 5 nM, 5 days (Table 13)
  APOE RNA (% UTC): 75 % UTC
Human APOE RNA [1]; 5 nM, 5 days (Table 14)
  APOE RNA (% UTC): 68 % UTC
Human APOE RNA [1]; 13 nM, 5 days (Table 13)
  APOE RNA (% UTC): 71 % UTC
Human APOE RNA [1]; 13 nM, 5 days (Table 14)
  APOE RNA (% UTC): 51 % UTC
Human APOE RNA [1]; 33 nM, 5 days (Table 13)
  APOE RNA (% UTC): 45 % UTC
Human APOE RNA [1]; 33 nM, 5 days (Table 14)
  APOE RNA (% UTC): 44 % UTC
Human APOE RNA [1]; 82 nM, 5 days (Table 13)
  APOE RNA (% UTC): 42 % UTC
Human APOE RNA [1]; 82 nM, 5 days (Table 14)
  APOE RNA (% UTC): 35 % UTC
Human APOE RNA [1]; 205 nM, 5 days (Table 13)
  APOE RNA (% UTC): 43 % UTC
Human APOE RNA [1]; 205 nM, 5 days (Table 14)
  APOE RNA (% UTC): 32 % UTC
Human APOE RNA [1]; 512 nM, 5 days (Table 13)
  APOE RNA (% UTC): 31 % UTC
Human APOE RNA [1]; 512 nM, 5 days (Table 14)
  APOE RNA (% UTC): 32 % UTC
Human APOE RNA [1]; 1,280 nM, 5 days (Table 13)
  APOE RNA (% UTC): 29 % UTC
Human APOE RNA [1]; 1,280 nM, 5 days (Table 14)
  APOE RNA (% UTC): 27 % UTC
Human APOE RNA [1]; 3,200 nM, 5 days (Table 13)
  APOE RNA (% UTC): 27 % UTC
Human APOE RNA [1]; 3,200 nM, 5 days (Table 14)
  APOE RNA (% UTC): 23 % UTC
Human APOE RNA [1]; 8,000 nM, 5 days (Table 13)
  APOE RNA (% UTC): 12 % UTC
Human APOE RNA [1]; 8,000 nM, 5 days (Table 14)
  APOE RNA (% UTC): 17 % UTC
Human APOE RNA [1]; 20,000 nM, 5 days (Table 13)
  APOE RNA (% UTC): 18 % UTC
Human APOE RNA [1]; 20,000 nM, 5 days (Table 14)
  APOE RNA (% UTC): 6 % UTC
Human APOE RNA [1]; 5 days (Table 13)
  IC50: 70 nM
Human APOE RNA [1]; 5 days (Table 14)
  IC50: 20 nM
Human APOE RNA [2]; APOE knock-in mouse model, 8 weeks post administration, assay of Example 11
  reduction of human APOE RNA in the cortex: 79%
Human APOE RNA [2]
  APOE RNA (% control) Cortex: 29 % control and 21 % control
  APOE RNA (% control) Spinal Cord: 15 % control and 10 % control
Human APOE RNA [3]; ICV dose 10 μg
  APOE RNA (% control) Cortex: 108 % control
  APOE RNA (% control) Spinal Cord: 58 % control
Human APOE RNA [3]; ICV dose 30 μg
  APOE RNA (% control) Cortex: 121 % control
  APOE RNA (% control) Spinal Cord: 55 % control
Human APOE RNA [3]; ICV dose 100 μg
  APOE RNA (% control) Cortex: 63 % control
  APOE RNA (% control) Spinal Cord: 23 % control
Human APOE RNA [3]; ICV dose 300 μg
  APOE RNA (% control) Cortex: 37 % control
  APOE RNA (% control) Spinal Cord: 20 % control
Human APOE RNA [3]; ICV dose 700 μg
  APOE RNA (% control) Cortex: 31 % control
  APOE RNA (% control) Spinal Cord: 18 % control
Human APOE RNA [3]
  ED 50 (μg) Cortex: 235.5 µg
  ED 50 (μg) Spinal Cord: 23.0 µg
Human APOE RNA [4]; 5 nM
  APOE RNA (% UTC): 94 % UTC
Human APOE RNA [4]; 13 nM
  APOE RNA (% UTC): 88 % UTC
Human APOE RNA [4]; 33 nM
  APOE RNA (% UTC): 83 % UTC
Human APOE RNA [4]; 82 nM
  APOE RNA (% UTC): 77 % UTC
Human APOE RNA [4]; 205 nM
  APOE RNA (% UTC): 61 % UTC
Human APOE RNA [4]; 512 nM
  APOE RNA (% UTC): 40 % UTC
Human APOE RNA [4]; 1,280 nM
  APOE RNA (% UTC): 29 % UTC
Human APOE RNA [4]; 3,200 nM
  APOE RNA (% UTC): 22 % UTC
Human APOE RNA [4]; 8,000 nM
  APOE RNA (% UTC): 11 % UTC
Human APOE RNA [4]; 20,000 nM
  APOE RNA (% UTC): 6 % UTC
Human APOE RNA [4]
  IC50: 370 nM
Human APOE RNA [5]
  APOE RNA (% control) Cortex: 29 % control
  APOE RNA (% control) Spinal Cord: 23 % control

## 1746809 (k[5mC]*dT[ms]kT*dG[ms]kG*dT[ms]dG[ms]dA[ms]dA[ms]dT*d[5mC]*dT*dT*dT*dA[ms]dT*dT[ms]kA*kA*kA; antisense) [Compound 1746809]
Human APOE RNA [1]; 5 nM, 5 days (Table 14)
  APOE RNA (% UTC): 93 % UTC
Human APOE RNA [1]; 13 nM, 5 days (Table 14)
  APOE RNA (% UTC): 118 % UTC
Human APOE RNA [1]; 33 nM, 5 days (Table 14)
  APOE RNA (% UTC): 80 % UTC
Human APOE RNA [1]; 82 nM, 5 days (Table 14)
  APOE RNA (% UTC): 68 % UTC
Human APOE RNA [1]; 205 nM, 5 days (Table 14)
  APOE RNA (% UTC): 77 % UTC
Human APOE RNA [1]; 512 nM, 5 days (Table 14)
  APOE RNA (% UTC): 57 % UTC
Human APOE RNA [1]; 1,280 nM, 5 days (Table 14)
  APOE RNA (% UTC): 31 % UTC
Human APOE RNA [1]; 3,200 nM, 5 days (Table 14)
  APOE RNA (% UTC): 34 % UTC
Human APOE RNA [1]; 8,000 nM, 5 days (Table 14)
  APOE RNA (% UTC): 12 % UTC
Human APOE RNA [1]; 20,000 nM, 5 days (Table 14)
  APOE RNA (% UTC): 8 % UTC
Human APOE RNA [1]; 5 days (Table 14)
  IC50: 660 nM
Human APOE RNA [2]
  APOE RNA (% control) Cortex: 47 % control
  APOE RNA (% control) Spinal Cord: 44 % control
Human APOE RNA [3]; ICV dose 10 μg
  APOE RNA (% control) Cortex: 98 % control
  APOE RNA (% control) Spinal Cord: 105 % control
Human APOE RNA [3]; ICV dose 30 μg
  APOE RNA (% control) Cortex: 89 % control
  APOE RNA (% control) Spinal Cord: 92 % control
Human APOE RNA [3]; ICV dose 100 μg
  APOE RNA (% control) Cortex: 79 % control
  APOE RNA (% control) Spinal Cord: 59 % control
Human APOE RNA [3]; ICV dose 300 μg
  APOE RNA (% control) Cortex: 57 % control
  APOE RNA (% control) Spinal Cord: 48 % control
Human APOE RNA [3]; ICV dose 700 μg
  APOE RNA (% control) Cortex: 41 % control
  APOE RNA (% control) Spinal Cord: 64 % control
Human APOE RNA [3]
  ED 50 (μg) Cortex: 446.6 µg
  ED 50 (μg) Spinal Cord: 652.7 µg
Human APOE RNA [4]; 5 nM
  APOE RNA (% UTC): 97 % UTC
Human APOE RNA [4]; 13 nM
  APOE RNA (% UTC): 94 % UTC
Human APOE RNA [4]; 33 nM
  APOE RNA (% UTC): 86 % UTC
Human APOE RNA [4]; 82 nM
  APOE RNA (% UTC): 72 % UTC
Human APOE RNA [4]; 205 nM
  APOE RNA (% UTC): 59 % UTC
Human APOE RNA [4]; 512 nM
  APOE RNA (% UTC): 34 % UTC
Human APOE RNA [4]; 1,280 nM
  APOE RNA (% UTC): 28 % UTC
Human APOE RNA [4]; 3,200 nM
  APOE RNA (% UTC): 11 % UTC
Human APOE RNA [4]; 8,000 nM
  APOE RNA (% UTC): 15 % UTC
Human APOE RNA [4]; 20,000 nM
  APOE RNA (% UTC): 10 % UTC
Human APOE RNA [4]
  IC50: 310 nM
Human APOE RNA [5]
  APOE RNA (% control) Cortex: 36 % control
  APOE RNA (% control) Spinal Cord: 59 % control
